Test results: PMC10796634, “Discovery of plant chemical defence mediated by a two-component system involving β-glucosidase in Panax species” (Nature Communications, 2024)

Tested on: PnGH1
Experiment: HPLC quantification of product Fd, Michaelis-Menten fit
Type: biochemical, Panax notoginseng
Settings: pH 5.0 (50 mM Tris-HCl), 60 °C, 30 min, 30–8000 µM Rb3

- Km: 677 ± 38.5 µM
Structure (SMILES): CC(C)=CCC[C@](C)(O[C@@H]1O[C@H](CO[C@@H]2OC[C@@H](O)[C@H](O)[C@H]2O)[C@@H](O)[C@H](O)[C@H]1O)[C@H]1CC[C@]2(C)[C@@H]1[C@H](O)C[C@@H]1[C@@]3(C)CC[C@H](O[C@@H]4O[C@H](CO)[C@@H](O)[C@H](O)[C@H]4O[C@@H]4O[C@H](CO)[C@@H](O)[C@H](O)[C@H]4O)C(C)(C)[C@@H]3CC[C@]12C [compound 4, Rb3]
